According to US12312641B2, “Sensitivity marker for antibody-drug conjugate” (priority 2018, dated 2025):
Where two headings read alike, the source gives them in different places.

Tests used:
[1] = system: Human lung cancer cell line Calu-3; experiment: Cell proliferation inhibition test upon SLFN11 knockdown, Calu-3; assay type: cell-based
Description: (§1) Human lung cancer cell line Calu-3 was obtained from ATCC and used for evaluation. Calu-3 cells suspended at 2×10^3 cells/mL in a MEM medium containing a non-essential amino acid solution, a pyruvic acid solution and 10% bovine fetal serum were seeded in a 10 cm cell culture dish at 10 mL/dish. Twenty-four hours after seeding, 100 pmol of ON-TARGETplus SLFN11 siRNA (Dharmacon Inc.) or ON-TARGETplus Non-targeting Control Pool (Dharmacon Inc.) and 30 μL of Lipofectamine™ RNAiMAX Transfection Reagent (Thermo Fisher Scientific Inc.) were suspended in 1 mL of Opti-MEM medium, and the entire amount of the suspension was added to the medium. After 72 hours, the medium was removed and the dish was washed with PBS, then the cells were dissociated and recovered from the dish using 1 mL of TrypLE™ Express. The recovered cells were suspended at 5×10^4 cells/mL in a MEM medium containing a non-essential amino acid solution, a pyruvic acid solution and 10% bovine fetal serum, and seeded in a 96-well cell culture plate at 100 μL/well. Twenty-four hours after seeding, the medium was replaced with a medium containing 100 nM, 33 nM, 11 nM, 3.7 nM, 1.2 nM, 0.41 nM, 0.13 nM, 0.045 nM, or 0 nM of compound (1) or antibody-drug conjugate (1) at 100 μL/well. The molar concentration of antibody-drug conjugate (1) was calculated by setting the average molecular weight to 150,000. Cells were all cultured at 37° C. under 5% CO2. After 72 hours from the medium replacement, ATPlite 1 step detection system (PerkinElmer Inc.) was added at 100 μL/well. The wells were incubated at room temperature for 10 minutes, then the luminescence intensity of each well was measured.
(§2) The cell growth inhibition rate (%) at each condition was calculated using the following calculation formula: Cell growth inhibition rate (%)=100×(1−T/C) • T: Average luminescence intensity of each well to which specimen was added • C: Average luminescence intensity of each well to which 0 nM specimen was added
(§3) The 50% inhibitory concentration at each condition was calculated by fitting to the following calculation formula: Cell viability (%)=(Emax−Emin)×Specimen concentration^γ/((Emax−50)/(50−Emin)×IC50^γ+Specimen concentration^γ)+Emin • Emax: maximum cell growth inhibition rate (%) • Emin: minimum cell growth inhibition rate (%) • IC50: 50% inhibitory concentration • γ: Hill coefficient
(§4) The fitting to the calculation formula was performed using SAS Systems Release 9.2 (SAS Institute Inc.).

[2] = system: Human lung cancer cell line NCI-H1781; experiment: Cell proliferation inhibition test upon SLFN11 knockdown, NCI-H1781; assay type: cell-based; details: for Cell proliferation inhibitory effect upon SLFN11 knockdown: NCI-H1781 cell lines, SLFN11 siRNA vs Non-targeting Control; for Fold change (SLFN11/Non-targeting Control): ratio of IC50
Description: as §1, with “NCI-H1781” for “Calu-3”, “RPMI-1640” for “a MEM”, “containing” for “containing a non-essential amino acid solution, a pyruvic acid solution and”
as §2, §3, §4

Molecule | Cell proliferation inhibitory effect upon SLFN11 knockdown ([1]; Calu-3 cell lines, SLFN11 siRNA vs Non-targeting Control) | Fold change (SLFN11/Non-targeting Control) ([1]; Calu-3 cells, ratio of IC50) | IC50 ([1]; Homo sapiens, Calu-3, 72 h, read-out: IC50 (nM) Non-targeting Control Pool) | IC50 ([1]; Homo sapiens, Calu-3, 72 h, read-out: IC50 (nM) SLFN11 siRNA) | IC50 ([2]; Homo sapiens, NCI-H1781, 72 h, read-out: IC50 (nM) Non-targeting Control Pool) | IC50 ([2]; Homo sapiens, NCI-H1781, 72 h, read-out: IC50 (nM) SLFN11 siRNA) | Cell proliferation inhibitory effect upon SLFN11 knockdown [2] | Fold change (SLFN11/Non-targeting Control) ([2]; NCI-H1781 cells) | IC50 ([1]; Calu-3 cells, Non-targeting Control Pool, 72 hours, ATPlite, read-out: IC50 (nM) Non-targeting Control Pool) | IC50 ([1]; Calu-3 cells, SLFN11 siRNA knockdown, 72 hours, ATPlite, read-out: IC50 (nM) SLFN11 siRNA) | IC50 ([2]; NCI-H1781 cells, Non-targeting Control Pool, 72 hours, ATPlite, read-out: IC50 (nM) Non-targeting Control Pool) | IC50 ([2]; NCI-H1781 cells, SLFN11 siRNA knockdown, 72 hours, ATPlite, read-out: IC50 (nM) SLFN11 siRNA)
CC[C@@]1(O)C(=O)OCc2c1cc1n(c2=O)Cc2c-1nc1cc(F)c(C)c3c1c2[C@@H](NC(=O)CO)CC3 [Compound (1)] | attenuated by SLFN11 knockdown | >4.8 | 20.9 nM | > 100 nM | 3.3 nM | 15 nM | attenuated by SLFN11 knockdown | 4.5 | – | – | – | –
antibody-drug conjugate (1): humanized anti-hTROP2 antibody (SEQ ID NO: 1 residues 20-470, SEQ ID NO: 2 residues 21-234) conjugated to the exatecan-derivative drug-linker via a thioether bond (conjugate, chains of the INN, looked up, exatecan-derivative drug-linker) VH: QVQLVQSGAEVKKPGASVKVSCKASGYTFTTAGMQWVRQAPGQGLEWMGWINTHSGVPKYAEDFKGRVTISADTSTSTAYLQLSSLKSEDTAVYYCARSGFGSSYWYFDVWGQGTLVTVSS VL: DIQMTQSPSSLSASVGDRVTITCKASQDVSTAVAWYQQKPGKAPKLLIYSASYRYTGVPSRFSGSGSGTDFTLTISSLQPEDFAVYYCQQHYITPLTFGQGTKLEIK | – | – | – | – | – | – | attenuated by SLFN11 knockdown | >12.5 | > 100 nM | > 100 nM | 8 nM | > 100 nM
